Experiments:
[1] = system: accumulation of dulcitol in the lenses; experiment: galactosemic rats, dulcitol accumulation in the lens; format: in vivo, rat (Sprague-Dawley); settings: 4 days, vs untreated galactosemic rats
Description: The aldose reductase inhibiting property of the compounds of this invention and the utilization of the compounds in preventing, diminishing and alleviating diabetic complications are demonstrable in experiments using galactosemic rats, see Dvornik et al., cited above. Such experiments are exemplified hereinbelow after the listing of the following general comments pertaining to these experiments:
(a) Four or more groups of six male rats, 50-70 g, Sprague-Dawley strain, were used. The first group, the control group, was fed a mixture of laboratory chow (rodent laboratory chow, Purina) and glucose at 20% (w/w %) concentration. The untreated galactosemic group was fed a similar diet in which galactose is substituted for glucose. The third group was fed a diet prepared by mixing a given amount of the test compound with the galactose containing diet. The concentration of galactose in the diet of the treated groups was the same as that for the untreated galactosemic group.
(b) After four days, the animals were killed by decapitation. The eyeballs were removed and punctured with a razor blade; the freed lenses were rolled gently on filter paper and weighed. The sciatic nerves were dissected as completely as possible and weighed. Both tissues were frozen and can be kept up to two weeks before being analyzed for dulcitol.
(c) The polyol determination was performed by a modification of the procedure of M. Kraml and L. Cosyns, Clin. Biochem., 2, 373 (1969). Only two minor reagent changes were made: (a) The rinsing mixture was an aqueous 5% (w/v) trichloroacetic acid solution and (b) the stock solution was prepared by dissolving 25 mg of dulcitol in 100 ml of an aqueous trichloroacetic acid solution. [N.B.: For each experiment the average value found in the tissue from rats fed the glucose diet was subtracted from the individual values found in the corresponding rat tissue to obtain the amount of polyol accumulated].
The figures under L and N represent the percentage decrease of dulcitol accumulation in the tissues of the lens and sciatic nerve, respectively, for treated rats as compared to untreated rats.

[2] = molecular target: T1, aldose reductase (Bos taurus, UniProt P16116); experiment: in vitro aldose reductase inhibition (modified Hayman and Kinoshita procedure); format: biochemical, bovine; settings: for inhibition at 10 µM: 10^-5 molar, read-out: % Inhibition at Different Molar Concentration (in vitro), 10^-5; for inhibition at 1 µM: 10^-6 molar, read-out: % Inhibition at Different Molar Concentration (in vitro), 10^-6; for inhibition at 0.1 µM: 10^-7 molar, read-out: % Inhibition at Different Molar Concentration (in vitro), 10^-7
T1 construct: the preparation of the enzyme from bovine lens; from tissue; host or cells: bovine lens
Description: In the present case the procedure of Hayman and Kinoshita is modified in that the final chromatography step is omitted in the preparation of the enzyme from bovine lens.

Row | inhibition at 10 µM [2] [%] | inhibition at 1 µM [2] [%] | inhibition at 0.1 µM [2] [%] | Compound | other results
1 | 8 |  |  | COC(=O)CN(C)C(=S)c1cccc2c(Br)cccc12 [Example 3, N-[(5-Bromo-1-naphthalenyl)thioxomethyl]-N-methylglycine Methyl Ester] | 
2 | 93 | 87 | 47 | CN(CC(=O)O)C(=S)c1cccc2c(Br)cccc12 [Example 32, N-[(5-Bromo-1-naphthalenyl)thioxomethyl]-N-methylglycine] | percentage decrease of dulcitol accumulation, lens (L) ([1]; 62 mg/kg/day in diet): 14%; percentage decrease of dulcitol accumulation, lens (L) ([1]; 121 mg/kg/day in diet): 20%; percentage decrease of dulcitol accumulation, lens (L) ([1]; 189 mg/kg/day in diet): 24%
3 | 91 | 77 | 32 | CN(CC(=O)O)C(=S)c1ccc(Br)c2ccccc12 [Example 33, N-[(4-bromo-1-naphthalenyl)thioxomethyl]-N-methylglycine] | 
4 | 88 | 75 | 24 | CN(CC(=O)O)C(=S)c1cccc2cccc(Br)c12 [Example 34, N-[(8-bromo-1-naphthalenyl)thioxomethyl]-N-methylglycine] | 
5 | 83 | 64 | 17 | COc1cccc2c(C(=S)N(C)CC(=O)O)cccc12 [Example 35, N-[(5-methoxy-1-naphthalenyl)thioxomethyl]-N-methylglycine] | 
6 | 89 | 74 | 26 | Cc1cccc2c(C(=S)N(C)CC(=O)O)cccc12 [Example 36, N-[(5-methyl-1-naphthalenyl)thioxomethyl]-N-methylglycine] | 
7 | 89 | 79 | 32 | CN(CC(=O)O)C(=S)c1cccc2c(C#N)cccc12 [Example 38, N-[(5-cyano-1-naphthalenyl)thioxomethyl]-N-methylglycine] | 
8 | 91 | 83 | 43 | CN(CC(=O)O)C(=S)c1cccc2c([N+](=O)[O-])cccc12 [Example 39, N-[(5-nitro-1-naphthalenyl)thioxomethyl]-N-methylglycine] | 
9 | 92 | 88 | 55 | Cc1ccc2c(C(=S)N(C)CC(=O)O)cccc2c1Br [Example 42, N-[(5-bromo-6-methyl-1-naphthalenyl)thioxomethyl]-N-methylglycine] | 
10 | 85 | 51 | 13 | CN(CC(=O)O)C(=S)c1cccc2ccccc12 [Example 43, N--((1naphthalenyl)thioxomethyl)-N--methylglycine] | 
11 | 88 | 73 | 25 | CN(CC(=O)O)C(=S)c1ccc(Cl)c2ccccc12 [Example 44, N-[(4-chloro-1-naphthalenyl)thioxomethyl]-N-methylglycine] | 
12 | 92 | 74 | 19 | C=C(C)c1cccc2c(C(=S)N(C)CC(=O)O)cccc12 [Example 50, N-[[5-(1-methylethenyl)-1-naphthalenyl]thioxomethyl]-N-methylglycine] | 
13 | 91 | 72 | 21 | CC(C)c1cccc2c(C(=S)N(C)CC(=O)O)cccc12 [Example 51, N-[[5-(1-methylethyl)-1-naphthalenyl]thioxomethyl]-N-methylglycine] | 
14 | 91 | 70 | 19 | CCCN(CC(=O)O)C(=S)c1cccc2c(Br)cccc12 [Example 55, N-[(5-bromo-1-naphthalenyl)thioxomethyl]-N-propylglycine] | 
15 | 92 | 77 | 27 | C=CCN(CC(=O)O)C(=S)c1cccc2c(Br)cccc12 [Example 56, N-[(5-bromo-1-naphthalenyl)thioxomethyl]-N-(2-propylene)glycine] | 
16 | 85 | 72 | 24 | CCN(CC(=O)O)C(=S)c1cccc2c(Br)cccc12 [Example 57, N-[(5-bromo-1-naphthalenyl)thioxomethyl]-N-ethylglycine] | 
17 | 86 | 65 | 19 | CCCCN(CC(=O)O)C(=S)c1cccc2c(Br)cccc12 [Example 58, N-[(5-bromo-1-naphthalenyl)thioxomethyl]-N-butylglycine] | 
18 | 64 | 21 |  | CN(CC(=O)O)C(=O)c1cccc2c(Br)cccc12 [N-[(5-Bromo-1-naphthalenyl)carbonyl]-N-methylglycine] | 

The remaining lines, values behind:

Row | Compound | inhibition at 10 µM [2] [%] | inhibition at 1 µM [2] [%] | inhibition at 0.1 µM [2] [%] | other results
19 | COc1ccc2c(C(=S)N(C)CC(=O)O)ccc(OC)c2c1C(F)(F)F [CH3, H, 4-CH3 O, 5-CF3,6-CH3 O, N-[[4,6-dimethoxy-5-(trifluoromethyl)-1-naphthalenyl]thioxomethyl]-N-methylglycine] |  |  |  | percentage decrease of dulcitol accumulation, lens (L) ([1]; 144 mg/kg/day in diet): 33%
20 | COC(=O)CN(C)C(=S)c1cccc2c(C(F)(F)F)c(OC)ccc12 [Example 23, N-[[5-(trifluoromethyl)-6-methoxy-1-naphthalenyl]thioxomethyl]-N-methylglycine methyl ester] | 9 |  |  | percentage decrease of dulcitol accumulation, lens (L) ([1]; 11 mg/kg/day in diet): 10%
21 | COc1c(Cl)cc(C(=S)NCC(=O)O)c2ccccc12 [Example 32 (H, H, 3-Cl, 4-CH3 O), N-[(3-chloro-4-methoxy-1-naphthalenyl)thioxomethyl]glycine] | 61 | 16 |  | 
22 | CCCCCOc1ccc2c(C(=S)N(C)CC(=O)O)cccc2c1Br [Example 37, N-[(5-bromo-6-pentyloxy-1-naphthalenyl)thioxomethyl]-N-methylglycine] | 93 | 91 | 55 | 
23 | COc1ccc2c(C(=S)N(C)CC(=O)O)cccc2c1I [Example 47, N-[(5-iodo-6-methoxy-1-naphthalenyl)thioxomethyl]-N-methylglycine] | 98 | 95 | 72 | 
24 | COc1ccc2c(C(=S)N(C)CC(=O)O)cccc2c1C#N [Example 48, N-[(5-cyano-6-methoxy-1-naphthalenyl)thioxomethyl]-N-methylglycine] | 98 | 93 | 74 | 
25 | COCCCOc1ccc2c(C(=S)N(C)CC(=O)O)cccc2c1Br [Example 49, N-[[5-bromo-6-(3-methoxy-propoxy)-1-naphthalenyl]thioxomethyl]-N-methylglycine] | 92 | 87 | 38 | 
26 | COc1ccc2c(C(=S)N(C)CC(=O)O)cccc2c1C(F)(F)F [Example 52, N-[[5-(trifluoromethyl)-6-methoxy-1-naphthalenyl]thioxomethyl]-N-methylglycine] |  |  |  | percentage decrease of dulcitol accumulation, lens (L) ([1]; 26 mg/kg/day in diet): 15%
27 | CN(CC(=O)O)C(=S)c1cccc2c(Br)c(OCc3cccc(C(F)(F)F)c3)ccc12 [Example 53, N-[[5-bromo-6-[3-(trifluoromethyl)phenylmethoxy]-1-naphthalenyl]thioxomethyl]-N-methylglycine] | 86 | 37 | 11 | 
28 | CN(CC(=O)O)C(=S)c1cccc2c(Br)c(OCc3ccc(Cl)cc3)ccc12 [Example 53a, N-[[5-bromo-6-(4-chlorophenylmethoxy)-1-naphthalenyl]thioxomethyl]-N-methylglycine] | 88 | 44 | 4 | 
29 | O=C(O)CNC(=S)c1cccc2c(Br)cccc12 [Example 54, N-[(5-bromo-1-naphthalenyl)thioxomethyl]glycine] | 54 | 14 |  | 
30 | O=C(O)CN(Cc1ccccc1)C(=S)c1cccc2c(Br)cccc12 [Example 59, N-[(5-bromo-1-naphthalenyl)thioxomethyl]-N-(phenylmethyl)glycine] | 86 | 69 | 20 | 
31 | COc1ccc2c(C(=O)N(C)CC(=O)O)cccc2c1C(F)(F)F [N-[[5-(trifluoromethyl)-6-methoxy-1-naphthalenyl]carbonyl]-N-methylglycine] | 94 | 93 | 60 | 

Source: US4568693A, “N-Naphthoylglycine derivatives” (Ayerst, McKenna & Harrison, Inc., priority 1981, dated 1986)
